Measurements as given in paper PMC4339887, “Selective Sirt2 inhibition by ligand-induced rearrangement of the active site” (Nature Communications, 2015).
“Also recorded” adds a separate entry of the source.

Columns and labels:
HeLa cells = test: cell cycle analysis, propidium iodide flow cytometry; type: cell-based; conditions: treated as for BubR1
Method: (§1) reader (BMG Polarstar, Oex 390 nm, Oem 460 nm). The amount of inhibition was determined with respect to the mixture with only DMSO.
Immunocytochemistry equipment and settings. The signal of Alexa 546 and DAPI of the same region were acquired with constant illumination parameters as grayscale 8-bit 600 dpi tiff files (1600u 1200 pixels). Alexa 546 was acquired after 639.1 ms with a gamma factor of 0.65 without multiplying. The gain was set to 1. DAPI-stained images were acquired after about 20 ms with the same parameters as the one for Alexa 546 image acquisition. The temperature in the microscope room was kept at RT. Representative regions of each samples were processed with Adobe Photoshop CS2 to generate images in RGB mode by copying the appropriate original greyscale images to the blue (nuclei, DAPI) and the red (acetylated D-tubulin signal, Alexa 546) channel, respectively. As adjustment, a minimal background subtraction was applied on all images during processing in the same manner. The resolution was changed from 600 dpi (source images) to 450 dpi without resampling (Fig. 7 of the main article). LUT (CLUT) of grayscale images of the acetylated D-tubulin signal and of the DAPI signal are shown in Supplementary Fig. 8.
Cell Cycle Analysis. […] Stained cells were subjected to flow cytometric analysis using a FACSCaliber (BD Biosciences) and analyzed by FlowJo software (Tree Star, Inc.).

KDAC6 = biological target: T1, KDAC6 (Homo sapiens, UniProt Q9UBN7); test: in vitro KDAC1/6 assay, substrate ZMAL; type: biochemical
T1 construct: purchased Enzo Life Sciences
T1 sequence (Q9UBN7 1-1215): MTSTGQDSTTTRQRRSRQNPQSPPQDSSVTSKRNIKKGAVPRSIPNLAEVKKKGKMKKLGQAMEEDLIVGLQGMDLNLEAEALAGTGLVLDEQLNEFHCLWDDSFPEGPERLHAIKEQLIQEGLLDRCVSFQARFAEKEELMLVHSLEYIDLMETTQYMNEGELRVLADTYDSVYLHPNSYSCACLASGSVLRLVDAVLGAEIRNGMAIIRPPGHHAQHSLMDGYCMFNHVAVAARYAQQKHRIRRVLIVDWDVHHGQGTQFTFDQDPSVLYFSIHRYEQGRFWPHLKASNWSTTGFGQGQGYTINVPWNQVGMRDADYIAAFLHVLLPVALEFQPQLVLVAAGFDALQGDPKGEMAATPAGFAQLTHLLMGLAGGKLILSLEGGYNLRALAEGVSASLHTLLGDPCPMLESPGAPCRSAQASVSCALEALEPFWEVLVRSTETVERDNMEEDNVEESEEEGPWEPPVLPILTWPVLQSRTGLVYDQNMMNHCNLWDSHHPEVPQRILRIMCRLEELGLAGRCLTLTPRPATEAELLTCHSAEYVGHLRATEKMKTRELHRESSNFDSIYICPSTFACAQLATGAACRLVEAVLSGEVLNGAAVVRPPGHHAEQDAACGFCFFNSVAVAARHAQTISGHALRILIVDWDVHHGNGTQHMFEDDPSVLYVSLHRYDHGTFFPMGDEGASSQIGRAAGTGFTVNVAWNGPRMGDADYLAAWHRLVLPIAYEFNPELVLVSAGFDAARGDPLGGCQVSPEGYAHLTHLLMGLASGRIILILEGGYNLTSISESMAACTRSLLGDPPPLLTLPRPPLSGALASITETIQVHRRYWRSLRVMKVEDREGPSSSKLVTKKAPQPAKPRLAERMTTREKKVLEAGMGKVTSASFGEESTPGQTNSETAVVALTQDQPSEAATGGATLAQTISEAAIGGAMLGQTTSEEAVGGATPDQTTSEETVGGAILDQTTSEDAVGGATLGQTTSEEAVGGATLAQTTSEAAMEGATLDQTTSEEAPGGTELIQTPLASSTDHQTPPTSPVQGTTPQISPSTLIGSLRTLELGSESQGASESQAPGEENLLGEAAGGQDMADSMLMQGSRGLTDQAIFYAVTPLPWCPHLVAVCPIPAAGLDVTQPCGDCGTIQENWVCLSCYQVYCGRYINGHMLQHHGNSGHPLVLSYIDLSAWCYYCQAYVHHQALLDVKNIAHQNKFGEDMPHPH
Method: 5 times), Fmoc deprotection and amino acid coupling were repeated until the last amino acid was coupled and the Fmoc group was removed. The resin was washed with dichloromethane (DCM, 3 min, 5 times), methanol (5 min, 3 times) and DCM (3 min, 5 times). […]
acid (TFA) at RT (1 h, 2 times). Cleaved peptide was precipitated with cold diethylether, filtrated and dried. The peptide was purified by semi-preparative HPLC (Merck-Hitachi High Speed LC system) using a Merck Hibar LiChrosorb RP-8 column (250–25 mm, 7 μm). For separation a linear gradient from 20–50% (vol/vol) acetonitrile (ACN) with 0.1% (vol/vol) TFA in 60 min was applied (flow-rate: 8 ml min-1). […]
high-throughput fluorescence-based assay using the substrate ZMAL (Z-Lys(Acetyl)- […]
A solution that contained DMSO was used a negative
The reaction was started through the addition of KDAC1 (Enzo Life Sciences, 10 μL) or […]
initial state conditions the substrate conversion was adjusted to 10–30% prior to inhibition tests. The reaction was stopped by the addition of a solution containing trypsin and TSA […]
Then fluorescence intensity of the released fluorophore of the deacetylated lysine derivative was measured in a microplate […]
as §1
Immunocytochemistry equipment and settings. […]

human Sirt3 = biological target: T2, human Sirt3 (Homo sapiens, UniProt Q9NTG7); test: HPLC-based conversion assay, non-labelled acetyl-lysine α-tubulin peptide; conditions: 100 μM, acetyl-lysine substrate
T2 sequence (Q9NTG7 118-395): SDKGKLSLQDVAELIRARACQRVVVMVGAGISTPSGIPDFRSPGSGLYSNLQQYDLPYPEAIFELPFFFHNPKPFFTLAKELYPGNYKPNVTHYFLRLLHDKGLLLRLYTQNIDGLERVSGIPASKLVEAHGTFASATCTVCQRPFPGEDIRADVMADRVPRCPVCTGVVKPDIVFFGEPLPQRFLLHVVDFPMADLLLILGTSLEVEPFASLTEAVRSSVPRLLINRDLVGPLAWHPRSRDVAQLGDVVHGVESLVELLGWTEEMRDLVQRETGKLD

Cc1cc(C)nc(SCC(=O)Nc2ncc(Cc3cccc4ccccc34)s2)n1 [SirReal2]
cell cycle distribution (HeLa cells): did not alter | activity of KDAC6 (KDAC6): does not affect; also recorded: not affected | effect on activity of Sirt3 (human Sirt3): very little effect
